Reference: US10548894B2, “Combination therapy” (Array BioPharma Inc., priority 2013, dated 2020)
Values belong to the molecule of their own block, whether it stands above or below them.

Tests used:
[1] = test system: A-375 cells expressing mutant MEK1P124L; assay: ATP-based CTG (Cell Titer Glo) cell viability assay, 72 h; conditions: Homo sapiens, A-375 MEK1P124L, single agent
Description: (§1) Compound stocks are prepared in DMSO at a final concentration of 10 mM. Working stocks are serially diluted in the appropriate cell culture medium in 3-fold increments to achieve final assay concentrations ranging from 2.7 μM to 1.2 nM.
(§2) A-375 and WM-266-4 cells were purchased from American Type Culture Collection (ATCC). The A-375 cells were cultured in DMEM medium (ATCC) and the WM-266-4 cells were cultured in EMEM medium (ATCC) both supplemented with 10% fetal bovine serum (Gibco) and incubated at 37° C./5% CO2. The cell lines engineered to express commonly occurring alleles indicative of resistance were acquired from Novartis-Emeryville. These resistant models include, A-375 cells expressing mutant MEK1P124L, truncated p61-BRAFV600E, or mutant NRASQ61K, and WM-266-4 cells expressing mutant MEK1C121S, truncated p61-BRAFV600E, or mutant NRASQ61K. These cells were cultured in the appropriate parental medium with selection marker G418 and in the presence of 5 uM LFE158 (MEK mutants) or LIH720 (truncated p61-BRAFV600E).
(§3) For screening, cells were seeded in 80 ul of medium in 384-well plates (Thermo Scientific, cat#4332) at 500 (A-375) or 750 (WM-266-4) cell densities per well using a MultiDrop Combi (Thermo-Fisher) with an 8-channel standard cassette. To promote an even distribution of cells across the entire well, cells were briefly centrifuged at 1000 RPM and incubated at room temperature 30 minutes. All plates were incubated at 37° C., 5% CO2 for 24 h prior to compound addition. Compound stock was freshly prepared in the appropriate culture medium, and added using a PAA robot equipped with a 200n1 pin tool. In a minimum of three replicate wells, single agent and combination effects after 72 hours, were assessed by both quantification of cellular ATP levels via Cell Titer Glo (Promega) according to the manufacturer's protocol and by microscopy imaging. For imaging, cells were fixed to the plates and permeabilized with a solution of 10% PFA, 0.3% TX-100 in PBS via a WellMate dispenser with controlled dispensing speeds. Cell nuclei were stained with Hoechst 33342 (H3570, Invitrogen), and all necessary washing steps were performed by a BioTek washer.
(§4) Data comprised triplicate measurements for each treatment (compound) condition, 42 replicates of DMSO-treated wells, and duplicates of Staurosporin-treated wells. The data was normalized to the median of the DMSO measurements and summarized by calculating the median of the triplicates. Data was imported into Chalice to calculate compound synergies.

[2] = test system: A-375 cells expressing mutant NRASQ61K; assay: as above; conditions: Homo sapiens, A-375 NRASQ61K, single agent
Description: as §1, §2, §3, §4

A-375 cells [3] = assay: as above; conditions: Homo sapiens, A-375 parent, single agent
Description: as §1, §2, §3, §4

[4] = test system: WM-266-4 cells expressing mutant MEK1C121S; assay: as above; conditions: Homo sapiens, WM-266-4 MEK1C121S, single agent
Description: as §1, §2, §3, §4

WM-266-4 cells [5] = assay: as above; conditions: Homo sapiens, WM-266-4 parent, single agent
Description: as §1, §2, §3, §4

[6] = test system: A-375 cells expressing mutant MEK1P124L; assay: Microscopy imaging assay (viable nuclei count), 72 h; assay type: cell-based; conditions: Homo sapiens, A-375 MEK1P124L, single agent
Description: as §1, §2, §3
(§5) An automated image analysis pipeline was established using custom-made scripts in the open-source, statistical programming language R, and functions of the BioConductor package EBImage. The goal was to quantify the number of viable nuclei (cells) per well as an approximation for cell viability. The pipeline was comprised of seven steps: (I.) smoothing of the image to reduce the number of intensity peaks, (II.) application of a thresholding function to separate the foreground (signal) from the background (noise), (III.) identification of local maxima in the foreground that serve as seeds for the nuclei, (IV.) filtering of local maxima in close proximity, (V.) propagation of the nuclei from remaining local maxima, (VI.) and extraction of object features from the propagated nuclei (numbers of nuclei, size features and intensity features). As a last step (VII.), to exclude debris (e.g. fragmented nuclei) from counting, objects identified in DMSO- and Staurosporin-treated wells were used to obtain feature distributions for viable and fragmented nuclei, respectively. These were used to set cut-offs differentiating between viable and fragmented nuclei. The number of fragmented nuclei was subtracted from the total number of identified objects and the result was reported as final count for that well.
as §4

[7] = test system: A-375 cells expressing mutant NRASQ61K; assay: as above; assay type: cell-based; conditions: Homo sapiens, A-375 NRASQ61K, single agent
Description: as §1, §2, §3, §5, §4

A-375 cells [8] = assay: as above; assay type: cell-based; conditions: Homo sapiens, A-375 parent, single agent
Description: as §1, §2, §3, §5, §4

[9] = test system: WM-266-4 cells expressing mutant MEK1C121S; assay: as above; assay type: cell-based; conditions: Homo sapiens, WM-266-4 MEK1C121S, single agent
Description: as §1, §2, §3, §5, §4

WM-266-4 cells [10] = assay: as above; assay type: cell-based; conditions: Homo sapiens, WM-266-4 parent, single agent
Description: as §1, §2, §3, §5, §4

[11] = Clinical dose finding and tolerability (RP2D/MTD) in patients; assay type: in vivo; conditions: for MTD: QD
Source text: The selection of the starting dose follows the ICH S9 guidelines for choosing a starting a dose for a first-in-human trial conducted in patients with cancer, and is shown in Table 6-2.
Table 3 describes the starting doses and the provisional dose levels of study treatments for the combinations that may be evaluated during this trial. Additional dose levels not currently specified may be enrolled and additional patients may be enrolled at a dose level already tested if such changes are deemed necessary to provide optimal safety and tolerability, pharmacokinetic, and pharmacodynamic data.

[12] = test system: HMEX1906 primary melanoma model (HMEX1906-R5); assay: Efficacy in HMEX1906-R5 primary melanoma model resistant to Compound of Formula (I); assay type: in vivo; conditions: PO; Compound C 250 mg/kg qd×21; Compound of Formula (I) 5 mg/kg bid×21
Description: Objective: To evaluate the efficacy of the combination of the Compound of Formula (I) and the CDK 4 inhibitor Compound C in the HMEX1906 primary melanoma model that is grown in the presence of and is resistant to 5 mg/kg the Compound of Formula (I) (HMEX1906-R5)
Drug formulation: Compound C is formulated in 0.5% MC/0.5% Tween80 and the Compound of Formula (I) is formulated in 20% PEG300/3% ETPGS.
Tumors are chopped/minced into cell line like suspension (tumors homogenized). 7 mL of matrigel added and 1.5 mL of HBSS. Suspension warmed in palm until Matrigel is thick and implanted with a 18G needle s.c right flank of female nude mice.
The mice were assigned to the following groups at 18 days post implant with an average tumor volume of 266 mm^3 and average body weight of 25 grams.
Groups: 10 mice/group, route PO, dose volume 0.2 mL
Group 1: Vehicle, 0 mg/kg bid×14
Group 2: Compound C, 250 mg/kg qd×21
Group 3: Compound of Formula (I), 5 mg/kg bid×21
Group 4: Compound C 250 mg/kg qd×21+Compound of Formula (I) 5 mg/kg bid×21

COLO 741 = assay: xCELLigence real-time impedance growth assay; assay type: cell-based; conditions: COLO 741, absence of FGF2; Formula (I) 500 nM, Compound H 1 uM
Description: (§6) Shown is the growth in real time of the (Top A) COLO 741 and (Bottom B) SK-MEL-5 cell lines as measured using the xCELLigence impedance-based cell analyzer as discussed in Example 5. Where indicated FGF2 and Compound H were supplemented to the media at concentrations of 100 ng/ml, and 1 uM, respectively. The Compound of Formula (I) was used at 500 nM in (A) and 100 nM (B).
(§7) For CellTiter-Glo™ assays, cells were dispensed into tissue culture treated 96-well plates (Costar, catalog number 3904) with a final volume of 80 μL of medium and at density of 3000 cells per well. 12 to 24 hrs after plating, 20 μL of each compound dilution series were transferred to plates containing the cells, resulting in compound concentration ranges of 2700 nM to 3.7 nM by 3-fold dilutions and a final DMSO concentration of 0.16%. The total volume in each well was […]. Plates were incubated for 72 hrs and the effects of compounds on cell proliferation was determined using the CellTiter-Glo™ Luminescent Cell Viability Assay (CTG, Promega) and a Victor™ X4 plate reader (Perkin Elmer). For real-time growth assays cells were seeded into xCELLigence E-plates (Roche catalogue number 05232368001) at a density of 4000 cells per well in a total of 90 μl of media and 24 hrs after plating, 11 μl of media with or without compound was added to the wells. 2-4 replicate wells were plated for all cell lines and treatment groups with the exception of LGX818+FGF2 treated COLO 741 cells (N=1). Where indicated final concentrations of compounds and growth factor were 1 uM for Compound H, 100 ng/ml for FGF2, and either 100 nM (SK-MEL-5) or 500 nM (COLO 741) for the Compound of Formula (I). Cells were continuously monitored every two hours for seven days with the xCELLigence real-time impedance based cell analyzer. Impedance was measured using the electrodes on the E-plates, with increasing surface area coverage of cells creating greater electrode impedance. […] In all cases cell index values were normalized to a timepoint immediately following the addition of compound.
(§8) To determine whether rescue of BRAFV600E melanoma cell lines by FGF2 was dependent on FGFR signaling, we examined whether the selective FGFR inhibitor Compound H could prevent FGF2-mediated rescue. Two cell lines which were rescued to varying degrees by FGF2 (COLO 741, and SK-MEL-5, Table 8-1) were cultured in media containing the Compound of Formula (I) and FGF2 either in the presence or absence of Compound H and growth measured in real time.

SK-MEL-5 = assay: xCELLigence real-time impedance growth assay; assay type: cell-based; conditions: SK-MEL-5, absence of FGF2; Formula (I) 100 nM, Compound H 1 uM
Description: as §6, §7, §8

[13] = test system: MAPK and PIK3C signaling in COLO 741 cells; assay: Western analysis of phosphorylated MEK1/2, ERK1/2 and AKT; assay type: cell-based; conditions: COLO 741, 2 and 24 hours, no FGF2; Formula (I) 100 nM, Compound H 1.0 uM
Description: (§9) FIG. 4—The effect on signaling of combining the Compound of Formula (I) with the FGFR inhibitor Compound H and the FGFR ligand FGF2 in two BRAFV600E mutant melanoma-derived cell lines in vitro. Shown is western analysis of both phosphorylated and total AKT, ERK1/2, and MEK1/2 proteins isolated from (A) […] and (B) SK-MEL-5 cells following treatment with the Compound of Formula (I) (100 nM), FGF2 (100 ng/ml), and Compound H (1 uM). Cells were treated for 2 and 24 hours with agents singly and in combination as discussed in Example 5.
(§10) For Western analysis, cells were plated in 6-well (Costar, catalog number 3506) plates at a density of 5×10^5 cells per well in 2.0 ml of complete culture medium. Twelve to 24 hrs after plating, cells were treated with the various compounds, and in all experiments the Compound of Formula (I), Compound H, and FGF2 were used at final concentrations of 100 nM, 1.0 uM, and 100 ng/ml, respectively. Cells were harvested 2, and 24 hrs following the addition of compound in freshly prepared cell lysis buffer (Cell Signaling Technology Catalog number 9803); supplemented with both phosphatase (PhosStop, Roche Catalog number 04906845001) and protease inhibitors (Roche, catalog number 11697498001). Proteins from cell lysates were separated by electrophoresis though a NuPAGE 4-12% Bis-Tis midi gel (Novex, catalog number WG1402BX10), transferred to nitrocellulose membranes, which were subsequently incubated with antibodies from Cell Signaling Technology (Danvers, Mass., USA) recognizing p-AKT (S473, Catalog number 4058), total AKT (Catalog number 2920), p-ERK1/2 (T202/Y204, catalog number 9101), total ERK1/2 (catalog number 9107), p-MEK1/2 (S217/221, catalog number 9121) and β-actin (Ambion, catalog number AM4302). Western blots were visualized following incubation with IRDye 680RD Goat anti-Rabbit IgG (Li-Cor, Catalog number 926-68071) and IRDye 800 CW Goat anti-Mouse IgG (Li-Cor, Catalog number 926-32210) and scanning with an Odyssey Infrared Imager System (Li-Cor, Lincoln, Nebr., USA).
(§11) To investigate whether either restored MAPK or activated PIK3C signaling might underlie FGF2-mediated rescue the effects of FGF2 on MAPK and PIK3C signaling were examined via western-blot analysis of phosphorylated MEK1/2 (MAP2K1/2), ERK1/2 (MAPK1/2) and AKT1/2/3.

[14] = test system: MAPK and PIK3C signaling in SK-MEL-5 cells; assay: as above; assay type: cell-based; conditions: SK-MEL-5, 2 and 24 hours, no FGF2; Formula (I) 100 nM, Compound H 1.0 uM
Description: as §9, §10, §11

IC50 [1]: > 2.7 µM
IC50 [2]: 0.206 µM
IC50 (A-375 cells [3]): 0.051 µM
IC50 [6]: > 2.7 µM
IC50 [7]: 0.15 µM
IC50 (A-375 cells [8]): 0.057 µM
SMILES: Cn1cnc2c(F)c(Nc3ccc(Br)cc3F)c(C(=O)NOCCO)cc21 [Compound B]
IC50 [4]: 0.821 µM
IC50 (WM-266-4 cells [5]): 0.05 µM
IC50 [9]: 1.21 µM
IC50 (WM-266-4 cells [10]): 0.077 µM
RP2D ([11]; BID, in combination with B-Raf inhibitor of Formula (I) 600 mg): 45 mg

SMILES: CN(C)C(=O)c1cc2cnc(Nc3ccc(N4CCNCC4)cn3)nc2n1C1CCCC1 [Compound C]
Mean change of body weight [12]: 5.3 ± 1.4 % ± SEM
Mean change of tumor volume [12]: 86 ± 26 mm3 ± SEM
Mean change of tumor volume vs control (T/C) [12]: 4%
Survival (Survivors/Total) [12]: 10/10
maximum tolerated dose (MTD) ([11]; currently tested at the 900 mg QD dose level): has not been achieved

SMILES: Nc1cc(C(F)(F)F)c(-c2cc(N3CCOCC3)nc(N3CCOCC3)n2)cn1 [Compound F, 5-(2,6-di-morpholin-4-yl-pyrimidin-4-yl)-4-trifluoromethyl-pyridin-2-ylamine]
MTD [11]: 100 mg

SMILES: CCN1CCN(c2ccc(Nc3cc(N(C)C(=O)Nc4c(Cl)c(OC)cc(OC)c4Cl)ncn3)cc2)CC1 [Compound H]
growth in real time (cell index) (COLO 741): did not affect the proliferation
growth in real time (cell index) (SK-MEL-5): did not affect the proliferation
MAPK signaling (phosphorylated MEK and ERK levels) [13]: neither FGF2 nor Compound H when added as single agents affected signaling
MAPK signaling (phosphorylated MEK and ERK levels) [14]: neither FGF2 nor Compound H when added as single agents affected signaling
MTD [11]: 125 mg
